“And” between values parts separate entries of the source, which are not always exact repeats. Identical values can stand only once.

The first assay concerns Escherichia coli (E. coli—ATCC #10536). Nature of the assay: Synergy test: high resolution MBC microtiter plate assay, phosphate buffer containing 35% dipropylene glycol, 15 seconds contact. In kind it is cell-based. Conditions: E. coli 10536; at Qa and Qb; less than one = synergy. An excerpt: The concentrations and ratios may also vary under different test conditions or with different test methods.
One measure of synergy is the industrially accepted method described by Kull, F. C.; Eisman, P. C.; Sylwestrowicz, H. D, and Mayer, R. L., in Applied Microbiology 9:538-541 (1961), using the ratio determined by the formula: […]=Synergy Index (“SI”) wherein; QA=concentration of compound A (first component) in percent, acting alone, which produced an end point (MBC of Compound A). Qa=concentration of compound A in percent, in the mixture, which produced an end point. QB=concentration of compound B (second component) in percent, acting alone, which, produced an end point (MBC of Compound B). Qb=concentration of compound B in percent, in the mixture, which produced an end point.
When the sum of Qa/QA and Qb/QB is greater than one, antagonism is indicated. […] The lower the SI, the greater is the synergy shown by that particular mixture. The minimum biocidal concentration (MBC) of a microbicide is the lowest concentration tested under a specific set of conditions that provides complete kill of the tested microorganisms.
Synergy tests were conducted using standard microliter plate assays with phosphate buffer containing 35% dipropylene glycol (DPG). In this method, a wide range of combinations of chemicals was tested by conducting high resolution MBC assays of Component (A) in the presence of various concentrations of Component (B). High resolution MBCs were determined by adding varying amounts of microbicide to one column of a microliter plate and doing subsequent […] dilutions using an automated liquid handling, system to obtain a series of closely spaced endpoints. The MBC plate was inoculated one column at a time with the test microorganism. An aliquot of the inoculated well was transferred at 15 seconds to a plate containing a neutralizing agent (D/E Neutralizing Broth), mixed and held for 5 minutes before being transferred to a growth plate containing trypticase soy broth (TSB). The TSB plate was incubated at 37° C. and read for the presence/absence of growth at 24 hours. The lowest level tested that provided complete kill (as evidenced by no growth in the microtitre plate) of the test organisms in 15 seconds is the minimum biocidal concentration (MBC).
The synergy of the combinations of the present invention was determined against a bacterium, Escherichia coli (E. coli—ATCC #10536), at a concentration of approximately 1×10^8 it bacteria per mL. This microorganism is representative of natural contaminants in many consumer and industrial applications.
As to `CC1=CC(C)C(CO)C(C)C1` (centres unmarked) [2,4,6-trimethyl-3-cyclohexene-1-methanol], the “SI (Synergy Index)” value is given as 1.00.
For `CC1=CCC(C(C)CO)CC1` (centres unmarked) [2-(4-methylcyclohex-3-enyl)propan-1-ol], the “SI (Synergy Index)” value is on record as 1.00.
Still for that read-out and setting: under `Oc1ccccc1C1CCCC1` [2-cyclopentylphenol] stands 1.00; under `Oc1ccccc1Cc1ccccc1` [2-hydroxydiphenylmethane], 1.00; under `Cc1cc(O)cc(C)c1Cl` [4-chloro-3,5-dimethylphenol], 1.00.
Turning to `Oc1ccc(C2CCCC2)cc1` [4-cyclopentylphenol], the “SI (Synergy Index)” value is on record as 1.00.
Same read-out and setting: as for `Oc1ccc(Cc2ccccc2)cc1` [4-hydroxydiphenylmethane], the figure is 1.00.

Still in this assay, the particulars now being: E. coli 10536; complete kill in 15 seconds; component alone.
With `CC1=CC(C)C(CO)C(C)C1` (centres unmarked) [2,4,6-trimethyl-3-cyclohexene-1-methanol], the “MBC of the component acting alone (QA / QB; Qa or Qb where the other component is 0)” value was 0.6 weight % and 1 weight % and 0.8 weight % and 0.3 weight %.
The same measure, in the same setting: under `CC1=CCC(C(C)CO)CC1` (centres unmarked) [2-(4-methylcyclohex-3-enyl)propan-1-ol] stands 0.3 weight % and 0.25 weight %.
As to `Oc1ccccc1C1CCCC1` [2-cyclopentylphenol], the “MBC of the component acting alone (QA / QB; Qa or Qb where the other component is 0)” value is 0.3 weight % and 0.5 weight %.
The same measure, in the same setting: as for `Oc1ccccc1Cc1ccccc1` [2-hydroxydiphenylmethane], the figure is 0.8 weight % and 0.5 weight % and 0.6 weight %.
For `Cc1cc(O)cc(C)c1Cl` [4-chloro-3,5-dimethylphenol], the “MBC of the component acting alone (QA / QB; Qa or Qb where the other component is 0)” value is 0.6 weight % and 1.0 weight % and 0.5 weight %.
Still for that read-out and setting: under `Oc1ccc(C2CCCC2)cc1` [4-cyclopentylphenol] stands 0.3 weight % and 0.5 weight % and 0.2 weight %.
On the same count and under the same terms, as for `Oc1ccc(Cc2ccccc2)cc1` [4-hydroxydiphenylmethane], the figure is 0.8 weight % and 0.6 weight %.

The assay is the same for the next values; noted with them: E. coli 10536; complete kill in 15 seconds; component alone; listed as 2-(4-methylcylohex-3-enyl)propan-1-ol.
In the case of `CC1=CCC(C(C)CO)CC1` (centres unmarked) [2-(4-methylcyclohex-3-enyl)propan-1-ol], the “MBC of the component acting alone (QA / QB; Qa or Qb where the other component is 0)” value came to 0.25 weight %.

For another assay the test system is unchanged. As to the kind of experiment: Automated assessment of efficacy in surfactant base (2.85% sodium cocoyl glycinate and 1.85% sodium lauroamphoacetate, pH 10.0), 15 seconds exposure. In kind it is cell-based. Conditions: 0.1% w/v, alone, model surfactant solution. The protocol: Test Methodology for Automated Assessment of Efficacy in Surfactant Base Microbiocidal Activity of Actives as Per the Invention in a Model Surfactant Medium Test Methodology for Automated Assessment of Efficacy in Surfactant Base In these examples, the efficacy of combinations of actives were tested in a surfactant cleansing formulation comprising 2.85% sodium cocoyl glycinate and 1.85% sodium lauroamphoacetate. This corresponds to a 50% in use dilution with water of a neat formulation containing 5.7% cocoyl glycinate and […] % sodium, lauroamphoacetate during hand washing. Solutions were prepared such that the concentrations of the surfactant components and test actives were 1.1× the final desired concentration in order to allow for dilution with the bacterial inoculum in the test. The solutions were manually adjusted to pH 10.0 by dropwise addition of sodium hydroxide solution, as measured with a pH meter at ambient temperature. The efficacy of the combinations of the present invention was determined against Escherichia coli (E. coli—ATCC #10536), at a concentration of approximately 1×10^8 bacteria per mL. Tests were conducted using standard microtiter plate assays using an automated liquid handling system. 270 μl of the surfactant test solution was pipetted into each well of the microtitre plate and 30 μl of the bacterial suspension was then added. Alter exactly 15 seconds of bacterial exposure, a 30 μl volume of bacterial cells was withdrawn and transferred to 270 μl of D/E quench solution. After 5 minutes in the D/E quench, the optical density (OD) was measured for each plate in turn at two specific wavelengths (450 nm and 590 nm). These provide a dual check of antimicrobial activity, as the OD450 reading is specific for the yellow colour of D/E quench when bacterial growth is observed, whereas OD590 is specific for the initial purple colour of the D/E quench which is retained if no bacterial growth is observed. After the time zero OD measurements, plates were then incubated at 37° C. overnight (16 hours) before repeating the OD measurements. Delta OD values were calculated by subtracting […]. Bacterial growth is observed as an increase in OD450 and a decrease in ΔOD590. To identify antibacterially efficacious systems (those preventing appreciable bacterial growth after incubation), the following threshold changes in OD readings have been adopted: if (1). OD450 increases by less than 0.2 absorbance unit on incubation and (2). OD590 decreases by less than 0.35 unit on incubation. Conversely, where OD450 increases by more than 0.2 AU and OD590 decreases by more than 0.35 unit after incubation, corresponding to a colour shift from purple to yellow, the test system allows bacterial growth and is not deemed efficacious. Four replicate measurements in the same plate have been made for each test system. The number of replicate wells showing either bacterial growth or no growth is also readily assessed by eye by following the colour change. Dose responses for individual components and binary mixtures of actives at a fixed concentration ratio were generated by sequential dilution of liquors with further surfactant solution to obtain a series of endpoints. […] In some selected cases, the combinations were also tested at the weight ratio 1:1.
In the case of `Oc1ccccc1C1CCCC1` [2-cyclopentylphenol], the “No. of replicates showing growth (out of 4)” value is 4; the “Δ OD 450 nm = OD450 (time = 16 hours) − OD450 (time zero), Mean” value (“Δ OD 450 nm = OD450” for short) is −0.57; the “Δ OD 590 nm OD590 (time = 16 hours) − OD590 (time zero), Mean” value (“Δ OD 590 nm OD590” below) is on record as 0.56.
The matching figures for `Oc1ccccc1Cc1ccccc1` [2-hydroxydiphenylmethane]: 4, −0.51 and 0.62.
The matching figures for `Cc1cc(O)cc(C)c1Cl` [4-chloro-3,5-dimethylphenol]: 4, −0.49 and 0.63.
For `Oc1ccc(Cc2ccccc2)cc1` [4-hydroxydiphenylmethane], the “No. of replicates showing growth (out of 4)” value was determined as 4; the “Δ OD 450 nm = OD450” value is reported as −0.58; the “Δ OD 590 nm OD590” value amounted to 0.52.

The same assay, now with this note: 0.125% w/v, alone, model surfactant solution.
In the case of `Oc1ccc(C2CCCC2)cc1` [4-cyclopentylphenol], the “No. of replicates showing growth (out of 4)” value was 4; the “Δ OD 450 nm = OD450” value is on record as −0.49; the “Δ OD 590 nm OD590” value was found to be 0.62.

The assay is the same for the next values; noted with them: 0.2% w/v, alone, model surfactant solution.
For `Oc1ccccc1C1CCCC1` [2-cyclopentylphenol], the “No. of replicates showing growth (out of 4)” value is given as 4; the “Δ OD 450 nm = OD450” value is given as −0.52; the “Δ OD 590 nm OD590” value is 0.61.
The matching figures for `Oc1ccccc1Cc1ccccc1` [2-hydroxydiphenylmethane]: 4, −0.51 and 0.63.
On to `Cc1cc(O)cc(C)c1Cl` [4-chloro-3,5-dimethylphenol], for which the “No. of replicates showing growth (out of 4)” value worked out at 4; the “Δ OD 450 nm = OD450” value is −0.50; the “Δ OD 590 nm OD590” value was found to be 0.62.
Turning to `Oc1ccc(C2CCCC2)cc1` [4-cyclopentylphenol], the “No. of replicates showing growth (out of 4)” value was 4; the “Δ OD 450 nm = OD450” value is −0.40; the “Δ OD 590 nm OD590” value is reported as 0.70.
Regarding `Oc1ccc(Cc2ccccc2)cc1` [4-hydroxydiphenylmethane], the “No. of replicates showing growth (out of 4)” value stood at 4; the “Δ OD 450 nm = OD450” value is listed as −0.52; the “Δ OD 590 nm OD590” value was determined as 0.61.
The matching figures for `C=C(C)[C@@H]1CC=C(CO)CC1` [(S)-(−) perillyl alcohol]: 4, −1.49 and 0.29.
The matching figures for `CC1=CC(C)C(CO)C(C)C1` (centres unmarked) [Isocyclo-Geraniol]: 4, −1.50 and 0.29.

The assay is the same for the next values; noted with them: 0.4% w/v, alone, model surfactant solution.
As for `CC1=CC(C)C(CO)C(C)C1` (centres unmarked) [Isocyclo-Geraniol], the “No. of replicates showing growth (out of 4)” value is 0; the “Δ OD 450 nm = OD450” value is on record as −0.06; the “Δ OD 590 nm OD590” value came out at 0.09.

The assay is the same for the next values; noted with them: 0.5% w/v, alone, model surfactant solution.
Consider `C=C(C)[C@@H]1CC=C(CO)CC1` [(S)-(−) perillyl alcohol], for which the “No. of replicates showing growth (out of 4)” value was found to be 0; the “Δ OD 450 nm = OD450” value is reported as −0.04; the “Δ OD 590 nm OD590” value came to 0.07.

The assay is the same for the next values; noted with them: […] w/v, alone, model surfactant solution.
Regarding `Oc1ccccc1C1CCCC1` [2-cyclopentylphenol], the “No. of replicates showing growth (out of 4)” value is 4; the “Δ OD 450 nm = OD450” value is on record as −0.56; the “Δ OD 590 nm OD590” value was found to be 0.54.
The matching figures for `Oc1ccccc1Cc1ccccc1` [2-hydroxydiphenylmethane]: 4, −0.49 and 0.64.
For `Cc1cc(O)cc(C)c1Cl` [4-chloro-3,5-dimethylphenol], the “No. of replicates showing growth (out of 4)” value amounted to 4; the “Δ OD 450 nm = OD450” value is listed as −0.47; the “Δ OD 590 nm OD590” value came to 0.63.
The matching figures for `Oc1ccc(C2CCCC2)cc1` [4-cyclopentylphenol]: 4, −0.45 and 0.65.
The matching figures for `Oc1ccc(Cc2ccccc2)cc1` [4-hydroxydiphenylmethane]: 4, −0.55 and 0.54.
Turning to `CC1=CC(C)C(CO)C(C)C1` (centres unmarked) [Isocyclo-Geraniol], the “No. of replicates showing growth (out of 4)” value is 4.

Staying with this assay, now noted: in 2.85% sodium cocoyl glycinate + 1.85% sodium lauroamphoacetate solution at pH 10; E. coli.
In the case of `CC1=CC(C)C(CO)C(C)C1` (centres unmarked) [2,4,6-trimethyl-3-cyclohexene-1-methanol], the “MBC (minimum biocidal concentration)” value stood at 0.4 % w/v.
Regarding `Oc1ccccc1C1CCCC1` [2-cyclopentylphenol], the “MBC (minimum biocidal concentration)” value is >0.2 % w/v.
Same read-out and setting: as for `Oc1ccccc1Cc1ccccc1` [2-hydroxydiphenylmethane], the figure is >0.2 % w/v; as for `Cc1cc(O)c(C(C)C)cc1Cl` [4-chloro-2-isopropyl-5-methylphenol, reference compound], >0.2 % w/v; as for `Cc1cc(O)cc(C)c1Cl` [4-chloro-3,5-dimethylphenol], >0.2 % w/v.
For the compound `Oc1ccc(C2CCCC2)cc1` [4-cyclopentylphenol], the “MBC (minimum biocidal concentration)” value was >0.2 % w/v.
Still for that read-out and setting: under `Oc1ccc(Cc2ccccc2)cc1` [4-hydroxydiphenylmethane] stands >0.2 % w/v.

Values taken from patent US9320271B2, “Microbial composition” (Rohm and Haas Company, priority 2011, dated 2016).
